Measurements: ChEMBL document CHEMBL3991950, “Imidazolidinedione derivatives” (2011)
Calls of active or inactive are those of the source.

Assays:
[1] = target: T1, Voltage-gated potassium channel KCNC2 (Homo sapiens) (UniProt Q96PR1); test: Modulation activity at human recombinant Kv3.2 expressed in CHOK1 cells assessed as potentiation of whole-cell currents by measuring activation time at 3.1 uM at -70 mV holding potential incubated for 3 mins by lonWorks Quattro system based electrophysiology assay (reference value: 7.1 ms)
T1 sequence (whole entry): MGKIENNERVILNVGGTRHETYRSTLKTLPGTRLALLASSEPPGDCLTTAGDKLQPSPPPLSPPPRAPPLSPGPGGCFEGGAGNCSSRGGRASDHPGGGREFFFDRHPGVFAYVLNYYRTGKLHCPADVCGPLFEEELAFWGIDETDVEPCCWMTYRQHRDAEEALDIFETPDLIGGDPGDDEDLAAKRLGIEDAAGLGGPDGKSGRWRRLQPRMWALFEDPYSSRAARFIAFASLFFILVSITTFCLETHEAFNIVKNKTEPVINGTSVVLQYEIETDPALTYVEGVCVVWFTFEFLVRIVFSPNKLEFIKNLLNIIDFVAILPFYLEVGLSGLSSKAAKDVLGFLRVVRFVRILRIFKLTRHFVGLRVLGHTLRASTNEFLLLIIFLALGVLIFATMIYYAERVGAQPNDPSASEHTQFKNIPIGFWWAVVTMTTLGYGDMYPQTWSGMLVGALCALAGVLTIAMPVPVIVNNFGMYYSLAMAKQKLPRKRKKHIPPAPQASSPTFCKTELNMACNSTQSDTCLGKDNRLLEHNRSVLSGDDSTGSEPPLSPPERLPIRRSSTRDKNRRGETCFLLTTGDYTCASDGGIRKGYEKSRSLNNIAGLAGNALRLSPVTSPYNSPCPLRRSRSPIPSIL

[2] = target: T1, Voltage-gated potassium channel KCNC2 (Homo sapiens); test: Positive modulation activity at human recombinant Kv3.2 expressed in CHOK1 cells assessed as effect on activation time at -70 mV holding potential incubated for 3 mins by lonWorks Quattro system based electrophysiology assay (reference value: 7.1 ms); type: cell-based
Mus musculus [3] = test: Reduction in amphetamine-induced hyperactivity in CD1 mouse assessed as reduction in amphetamine-induced increase in total distance travelled at 3 mg/kg, ip pretreated with compound 30 mins before amphetamine challenge and measured over 60 mins post amphetamine challenge; type: functional, organism-based
Mus musculus [4] = test: Reduction in amphetamine-induced hyperactivity in CD1 mouse assessed as amphetamine-induced increase in total distance travelled at 3 mg/kg, ip pretreated with compound 30 mins before amphetamine challenge and measured over 60 mins post amphetamine challenge (reference value: 16304 +/- 3309 cm); type: functional
[5] = target: T1, Voltage-gated potassium channel KCNC2 (Homo sapiens); test: Modulation activity at human recombinant Kv3.2 expressed in CHOK1 cells assessed as potentiation of whole-cell currents by measuring activation time at 12.5 uM at -70 mV holding potential incubated for 3 mins by lonWorks Quattro system based electrophysiology assay (reference value: 7.1 ms)
Callithrix jacchus [6] = test: Antipsychotic-like activity in common marmoset assessed as induction of increase in absolute power in delta band at 3 mg/kg, po measured between 30 and 120 mins by electroencephalography analysis; type: functional, organism-based
Callithrix jacchus [7] = test: Antipsychotic-like activity in common marmoset assessed as induction of increase in theta band power at 3 mg/kg, po measured at 60 mins by electroencephalography analysis; type: functional, organism-based
Callithrix jacchus [8] = test: Antipsychotic-like activity in common marmoset assessed as induction of increase in absolute power in delta band at 1 mg/kg, po measured at 30 mins by electroencephalography analysis; type: functional, organism-based
Callithrix jacchus [9] = test: Antipsychotic-like activity in common marmoset assessed as induction of reduction in power in beta band at 1 mg/kg, po measured at 30 mins by electroencephalography analysis; type: functional, organism-based
Callithrix jacchus [10] = test: Effect on absolute power in alpha band in common marmoset at 0.3 to 3 mg/kg, po by electroencephalography analysis; type: ADME, organism-based; settings: in vivo
Rattus norvegicus [11] = test: Increase in threshold for tonic hindlimb extensor seizures in CD rat model of electroshock seizure at 300 mg/kg, po relative to untreated control; type: functional
[12] = target: T1, Voltage-gated potassium channel KCNC2 (Homo sapiens); test: Modulation activity at human recombinant Kv3.2 expressed in CHOK1 cells assessed as potentiation of whole-cell currents at 6.3 uM at -70 mV holding potential incubated for 3 mins by lonWorks Quattro system based electrophysiology assay
[13] = target: T1, Voltage-gated potassium channel KCNC2 (Homo sapiens); test: Modulation activity at human recombinant Kv3.2 expressed in CHOK1 cells assessed as potentiation of whole-cell currents at 25 uM at -70 mV holding potential incubated for 3 mins by lonWorks Quattro system based electrophysiology assay
[14] = target: T1, Voltage-gated potassium channel KCNC2 (Homo sapiens); test: Modulation activity at human recombinant Kv3.2 expressed in CHOK1 cells assessed as potentiation of whole-cell currents by measuring activation time at 6.25 uM at -70 mV holding potential incubated for 3 mins by lonWorks Quattro system based electrophysiology assay (reference value: 7.1 ms)
Mus musculus [15] = organism: Mus musculus; test: (§1) Modulation activity at Kv3 channel-mediated firing activity of parvalbumin-positive interneurons isolated form somatosensory cortex of transgenic [CB6-Tg (Gad1-EGFP) G42Zjh/J] mouse assessed as reduction in 0.5 mM TEA-induced action potential half-width at 1 uM incubated for 1 hr at resting potential of -80 mV by electrophysiology assay
Mus musculus [16] = organism: Mus musculus; test: as §1, with “at 10” for “at 1”
[17] = target: T2, Voltage-gated potassium channel KCNC1 (Mus musculus) (UniProt P15388); test: Modulation activity at Kv3.1 channel-mediated potassium currents in neurons isolated from medial nucleus of trapezoid body in CBA/Ca mouse assessed as reversal of TEA-induced reduction in voltage steps to +40 mV-evoked amplitude of outward high voltage-activated potassium currents at 10 uM at resting potential of -60 mV incubated for 5 mins by electrophysiology assay
T2 sequence (whole entry): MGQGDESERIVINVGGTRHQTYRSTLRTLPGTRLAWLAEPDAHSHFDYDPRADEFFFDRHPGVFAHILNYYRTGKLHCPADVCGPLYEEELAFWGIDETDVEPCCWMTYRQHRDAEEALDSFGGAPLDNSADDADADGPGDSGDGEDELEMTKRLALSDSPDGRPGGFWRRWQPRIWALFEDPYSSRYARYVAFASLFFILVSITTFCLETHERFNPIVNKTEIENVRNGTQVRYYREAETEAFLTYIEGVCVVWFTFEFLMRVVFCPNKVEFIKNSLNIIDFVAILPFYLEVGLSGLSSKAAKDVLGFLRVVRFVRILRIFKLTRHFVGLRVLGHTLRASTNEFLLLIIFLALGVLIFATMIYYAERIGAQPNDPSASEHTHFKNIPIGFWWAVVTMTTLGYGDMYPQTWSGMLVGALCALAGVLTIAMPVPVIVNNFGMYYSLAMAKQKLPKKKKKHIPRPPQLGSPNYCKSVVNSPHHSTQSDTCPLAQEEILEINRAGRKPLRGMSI

Rattus norvegicus [18] = test: Increase in threshold for tonic hindlimb extensor seizures in CD rat model of electroshock seizure at 30 mg/kg, po relative to untreated control; type: functional
Rattus norvegicus [19] = test: Increase in threshold for tonic hindlimb extensor seizures in CD rat model of electroshock seizure at 60 mg/kg, po relative to untreated control; type: functional
Mus musculus [20] = test: Reduction in amphetamine-induced hyperactivity in CD1 mouse assessed as reduction in amphetamine-induced increase in total distance travelled at 30 mg/kg, po pretreated with compound 30 mins before amphetamine challenge and measured over 60 mins post amphetamine challenge; type: functional, organism-based
Mus musculus [21] = test: Reduction in amphetamine-induced hyperactivity in CD1 mouse assessed as reduction in amphetamine-induced increase in total distance travelled at 60 mg/kg, po pretreated with compound 30 mins before amphetamine challenge and measured over 60 mins post amphetamine challenge; type: functional, organism-based
Mus musculus [22] = test: Reduction in amphetamine-induced hyperactivity in CD1 mouse assessed as amphetamine-induced increase in total distance travelled at 10 mg/kg, po pretreated with compound 30 mins before amphetamine challenge and measured over 60 mins post amphetamine challenge (reference value: 16304 +/- 3309 cm); type: functional
Callithrix jacchus [23] = test: Sedative or hypnotic effect in marmoset assessed as reduction in number of animal jumps at 1 and 3 mg/kg, po dosed 2 hrs before test and measured over 2 mins post dose; type: functional, organism-based
Callithrix jacchus [24] = test: Effect on animal postures in marmoset at 1 and 3 mg/kg, po dosed 2 hrs before test and measured over 2 mins post dose; type: ADME, organism-based; settings: in vivo
[25] = target: T1, Voltage-gated potassium channel KCNC2 (Homo sapiens); test: Modulation activity at human recombinant Kv3.2 expressed in CHOK1 cells assessed as potentiation of whole-cell currents by measuring activation time at 0.2 uM at -70 mV holding potential incubated for 3 mins by lonWorks Quattro system based electrophysiology assay
[26] = target: T1, Voltage-gated potassium channel KCNC2 (Homo sapiens); test: Negative modulation activity at human recombinant Kv3.2 expressed in CHOK1 cells assessed as effect on activation time at -70 mV holding potential incubated for 3 mins by lonWorks Quattro system based electrophysiology assay; type: cell-based
[27] = target: T1, Voltage-gated potassium channel KCNC2 (Homo sapiens); test: Modulation activity at human recombinant Kv3.2 expressed in CHOK1 cells assessed as potentiation of whole-cell currents by measuring activation time at 0.4 uM at -70 mV holding potential incubated for 3 mins by lonWorks Quattro system based electrophysiology assay (reference value: 7.1 ms)
[28] = target: T1, Voltage-gated potassium channel KCNC2 (Homo sapiens); test: Modulation activity at human recombinant Kv3.2 expressed in CHOK1 cells assessed as potentiation of whole-cell currents by measuring activation time at 0.8 uM at -70 mV holding potential incubated for 3 mins by lonWorks Quattro system based electrophysiology assay (reference value: 7.1 ms)

## CC[C@H]1NC(=O)N(c2ccc(Oc3ccc(C#N)c(C4CC4)c3)nc2)C1=O
[1]
  TIME: 2.11e-06 h
[2]
  Activity: Active

## CN1CCN(C2=Nc3cc(Cl)ccc3Nc3ccccc32)CC1 [CLOZAPINE]
Mus musculus [3]
  Activity: Active
Mus musculus [4]
  Activity: 932 cm

## CCc1cc(Oc2ccc(N3C(=O)N[C@H](CC)C3=O)cn2)ccc1C#N
[1]
  TIME: 2.28e-06 h

## CC[C@H]1NC(=O)N(c2ccc(Oc3ccc(C#N)c(OC(F)(F)F)c3)nc2)C1=O
[1]
  TIME: 2.89e-06 h

## CC[C@H]1NC(=O)N(c2ccc(Oc3ccc(C#N)cc3C3CC3)nc2)C1=O
[1]
  TIME: 3.61e-06 h
[2]
  Activity: Active

## CC[C@@]1(C)NC(=O)N(c2ccc(Oc3ccc(C)c(OC)c3)nc2)C1=O
[5]
  TIME: 2.03e-06 h
[2]
  Activity: Active
Callithrix jacchus [6]
  Activity: Active
Callithrix jacchus [7]
  Activity: Active
Callithrix jacchus [8]
  Activity: Active
Callithrix jacchus [9]
  Activity: Active
Callithrix jacchus [10]
  Activity: Non-Toxic

## CCCC(CCC)C(=O)[O-].[Na+] [VALPROATE SODIUM]
Rattus norvegicus [11]
  Activity: 258%

## CC[C@H]1NC(=O)N(c2ccc(Oc3ccc(C)c(OC)c3)nc2)C1=O
[12]
  Activity: Active
[13]
  Activity: Active
[14]
  TIME: 2.75e-06 h
[2]
  Activity: Active
Mus musculus [15]
  inhibition: 24%
Mus musculus [16]
  inhibition: 36%
[17]
  Activity: Active
Rattus norvegicus [18]
  Activity: 91%
Rattus norvegicus [19]
  Activity: 218%
Mus musculus [20]
  Activity: Active
Mus musculus [21]
  Activity: Active
Mus musculus [22]
  Activity: 15267 cm
Callithrix jacchus [23]
  Activity: Active
Callithrix jacchus [24]
  Activity: Non-Toxic

## CC[C@H]1NC(=O)N(c2ccc(Oc3ccc(C#N)cc3C(C)(C)C)nc2)C1=O
[25]
  TIME: 6.39e-06 h
[26]
  inhibition: Active

## CC[C@H]1NC(=O)N(c2ccc(Oc3ccc(C#N)c(OC(C)C)c3)nc2)C1=O
[1]
  TIME: 2.69e-06 h

## CC1(C)NC(=O)N(c2ccc(Oc3cccc4c3C3(CC3)CO4)nc2)C1=O
[27]
  TIME: 5.36e-06 h
[26]
  inhibition: Active

## CC[C@H]1NC(=O)N(c2ccc(Oc3ccc(C#N)c(C(C)C)c3)nc2)C1=O
[28]
  TIME: 2.56e-06 h
[2]
  Activity: Active
